Laboratory results taken from PubChem BioAssay (NCI).
Values joined by “and” are separate entries in the source; they are usually repeats but may differ in a detail not shown here. Equal values may be shown once.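 Results reflect a 48-hour exposure of cells in 96-well plates to compound at five concentrations. GI50 = concentration required for 50% inhibition of growth. Definition used: TGI = concentration required for complete inhibition of growth.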

These compounds were tested on A549 NSCLC (assay: NCI-60 cell line screen, 48 h).

Compound	GI50	TGI
CS(=O)(=O)Nc1cc(-c2ccc3ncnc(Nc4cccc(Cl)c4)c3c2)cnc1Cl	1.11 µM	4.17 µM
COc1ccc2c(c1OC)O/C(=C\c1ncc([N+](=O)[O-])n1C)C2=O	2.59 µM	12.1 µM
CC1(C)N=C(N)N=C(N)N1c1cccc(CCc2ccccc2)c1	0.125 µM	> 100 µM
O=C1Nc2ccc3c(c2/C1=C\c1cc2c(cc1Br)OCO2)OCO3	0.731 µM	2.49 µM
COc1cc2cc(Oc3cccc(NC(=O)Nc4cc(C(F)(F)F)cc(C(F)(F)F)c4)c3)c(C)nc2cc1OC	1.42 µM	4.75 µM
COc1cc2ncnc(Oc3cccc(NC(=O)Nc4cc(C(C)(C)C(F)(F)F)on4)c3)c2cc1OC	1.9 µM and 2.74 µM	40.8 µM and > 10 µM
COc1ccc(/C=C/C(=O)c2cc3c(N)c(C(=O)Nc4ccc(OC)cc4)sc3nc2C)cc1	0.231 µM	> 50 µM
CCOC(=O)[C@@H]1CSC(CC)=C(C(=O)O)N1	> 100 µM	> 100 µM
COc1cc(NC2CCCCC2O)c2nc(-c3ccc(Cl)cc3)ccc2c1 (centres undefined)	6.05 µM	> 100 µM
Nn1c(-c2ccc(Cl)cc2)nc2c(-c3ccc(Cl)cc3)nc3ccc(Cl)cc3c2c1=O	4.8 µM	> 100 µM
COc1ccc(-c2csc(Nc3cccc(-c4csc(C)n4)c3)n2)cc1	0.902 µM	49.8 µM
COc1cc(/C=C2\SC(N3CCCCC3)=NC2=O)ccc1OCCCCCCOc1ccc(/C=C2\SC(N3CCCCC3)=NC2=O)cc1OC	11.8 µM	30.9 µM
COc1cc2c3cc1Oc1c(OC)c(OC)cc4c1C(Cc1ccc(O)c(c1)Oc1ccc(cc1)CC3N(C)CC2)N(C)CC4 (centres undefined)	14.4 µM	81.7 µM and 48.8 µM
C[As](C)SC1OCC(O)C(O)C1O (centres undefined)	1.63 µM	> 33.7 µM
COc1cc2c3c(n(CCCNCCCNCCCN)c(=O)c2cc1OC)-c1cc2c(cc1C3=O)OCO2	> 100 µM	> 100 µM
CCOC1Oc2ccc(C)cc2C(=O)/C1=C\Nc1ccc(S(N)(=O)=O)cc1 (centres undefined)	13.9 µM	> 50 µM
Cc1nc2ccccc2c(=O)n1/N=C(\N=Nc1cc(Cl)ccc1Cl)c1ccccc1	–	> 100 µM
O=c1[nH]cnc2n[nH]nc12	–	> 100 µM
CC1(C)C2CCC13C(=O)C1OC3(C2)C2C(=O)c3c(ccc4c3ccc3ccccc34)C(=O)C12 (centres undefined)	> 60.1 µM	> 100 µM

Each compound was assayed on HCT-116 colon (assay: NCI-60 cell line screen, 48 h).

Compound	GI50	TGI
CS(=O)(=O)Nc1cc(-c2ccc3ncnc(Nc4cccc(Cl)c4)c3c2)cnc1Cl	0.664 µM	5.87 µM
COc1ccc2c(c1OC)O/C(=C\c1ncc([N+](=O)[O-])n1C)C2=O	0.455 µM	3.68 µM
CC1(C)N=C(N)N=C(N)N1c1cccc(CCc2ccccc2)c1	0.208 µM	> 100 µM
O=C1Nc2ccc3c(c2/C1=C\c1cc2c(cc1Br)OCO2)OCO3	0.376 µM	1.72 µM
COc1cc2cc(Oc3cccc(NC(=O)Nc4cc(C(F)(F)F)cc(C(F)(F)F)c4)c3)c(C)nc2cc1OC	0.589 µM	1.92 µM
COc1cc2ncnc(Oc3cccc(NC(=O)Nc4cc(C(C)(C)C(F)(F)F)on4)c3)c2cc1OC	0.618 µM and 0.843 µM	11 µM and > 10 µM
COc1ccc(/C=C/C(=O)c2cc3c(N)c(C(=O)Nc4ccc(OC)cc4)sc3nc2C)cc1	0.0634 µM	17.5 µM
CCOC(=O)[C@@H]1CSC(CC)=C(C(=O)O)N1	> 100 µM	> 100 µM
COc1cc(NC2CCCCC2O)c2nc(-c3ccc(Cl)cc3)ccc2c1 (centres undefined)	12.9 µM	> 100 µM
Nn1c(-c2ccc(Cl)cc2)nc2c(-c3ccc(Cl)cc3)nc3ccc(Cl)cc3c2c1=O	5.79 µM	> 100 µM
COc1ccc(-c2csc(Nc3cccc(-c4csc(C)n4)c3)n2)cc1	1.8 µM	> 50 µM
COc1cc(/C=C2\SC(N3CCCCC3)=NC2=O)ccc1OCCCCCCOc1ccc(/C=C2\SC(N3CCCCC3)=NC2=O)cc1OC	12.6 µM	31.2 µM
COc1cc2c3cc1Oc1c(OC)c(OC)cc4c1C(Cc1ccc(O)c(c1)Oc1ccc(cc1)CC3N(C)CC2)N(C)CC4 (centres undefined)	5.56 µM	> 100 µM and 49.5 µM
C[As](C)SC1OCC(O)C(O)C1O (centres undefined)	0.244 µM	1.37 µM
COc1cc2c3c(n(CCCNCCCNCCCN)c(=O)c2cc1OC)-c1cc2c(cc1C3=O)OCO2	43 µM	> 100 µM
CCOC1Oc2ccc(C)cc2C(=O)/C1=C\Nc1ccc(S(N)(=O)=O)cc1 (centres undefined)	6.62 µM	14.9 µM
Cc1nc2ccccc2c(=O)n1/N=C(\N=Nc1cc(Cl)ccc1Cl)c1ccccc1	–	> 31.6 µM
O=c1[nH]cnc2n[nH]nc12	–	28.3 µM
CC1(C)C2CCC13C(=O)C1OC3(C2)C2C(=O)c3c(ccc4c3ccc3ccccc34)C(=O)C12 (centres undefined)	> 36.9 µM	> 57 µM

These compounds were tested on HL-60(TB) leukemia (assay: NCI-60 cell line screen, 48 h).

Compound	GI50	TGI
CS(=O)(=O)Nc1cc(-c2ccc3ncnc(Nc4cccc(Cl)c4)c3c2)cnc1Cl	0.174 µM	17.7 µM
COc1ccc2c(c1OC)O/C(=C\c1ncc([N+](=O)[O-])n1C)C2=O	0.834 µM	–
CC1(C)N=C(N)N=C(N)N1c1cccc(CCc2ccccc2)c1	1.89 µM	28.7 µM
O=C1Nc2ccc3c(c2/C1=C\c1cc2c(cc1Br)OCO2)OCO3	0.271 µM	2.35 µM
COc1cc2cc(Oc3cccc(NC(=O)Nc4cc(C(F)(F)F)cc(C(F)(F)F)c4)c3)c(C)nc2cc1OC	1.58 µM	4.37 µM
COc1cc2ncnc(Oc3cccc(NC(=O)Nc4cc(C(C)(C)C(F)(F)F)on4)c3)c2cc1OC	2.7 µM and 0.816 µM	> 28.5 µM
COc1ccc(/C=C/C(=O)c2cc3c(N)c(C(=O)Nc4ccc(OC)cc4)sc3nc2C)cc1	0.323 µM	2.22 µM
CCOC(=O)[C@@H]1CSC(CC)=C(C(=O)O)N1	> 100 µM	> 100 µM
COc1cc(NC2CCCCC2O)c2nc(-c3ccc(Cl)cc3)ccc2c1 (centres undefined)	7.57 µM	63 µM
